Assay results taken from US11547655B2, “Use of an extract of the pericarp of Nephelium lappaceum for hydrating the skin and/or mucous membranes” (BASF Beauty Care Solutions France S.A.S., priority 2017, dated 2023).

System: involucrin
Assay: Involucrin synthesis in normal human keratinocytes, ELISA assay
Assay type: cell-based
Details: for MEAN (% involucrin detected): relative to the control, n=3; for stimulation of involucrin synthesis: at the concentrations tested, corresponding to those present in the cosmetic ingredient of example 4
Experimental: Normal, that is to say non-pathological, human keratinocytes were cultured in an MCDB153 medium (Dutscher France) containing 2% of fetal calf serum. After culture for 3 days at 37° C., the growth medium was replaced with MCDB153 medium containing various final concentrations of extract of N. lappaceum (by weight relative to the total volume of the medium) or without extract (Control) (table 1). The culture medium was replaced then solubilized in an extraction buffer. The amount of involucrin was quantified by ELISA assay. The results obtained are expressed as % relative to the control (n=3) (MEAN: mean; SD: Standard deviation).
Normal, that is to say non-pathological, human keratinocytes were cultured in an MCDB153 medium (Dutscher France) containing 2% of fetal calf serum. After culture for 3 days at 37° C., the growth medium was replaced with MCDB153 medium containing two final concentrations of ellagic acid or of geranin (w/v final medium) or without ellagic acid or without geranin (Control) (table 3). The culture medium was replaced. The amount of involucrin was quantified by ELISA assay. The results obtained are expressed as % relative to the control (n=3).

Row | Structure (SMILES) | MEAN (% involucrin detected) (1.5 × 10^−3% (w/v medium)) | MEAN (% involucrin detected) (9 × 10^−4% (w/v medium)) | stimulation of involucrin synthesis | MEAN (% involucrin detected) (1.1 × 10^−4% (w/v medium)) | MEAN (% involucrin detected) (1.9 × 10^−4% (w/v medium))
1 | O=C1O[C@H]2[C@@H]3OC(=O)c4cc(O)c(O)c(O)c4-c4c(cc(O)c(O)c4O)C(=O)OC[C@H]2O[C@@H](OC(=O)c2cc(O)c(O)c(O)c2)[C@@H]3OC(=O)c2cc(O)c(O)c3c2[C@@H]2C1=CC(=O)[C@](O)(O3)C2(O)O [Geranin, geranin] | 29% | 78% | Neither ellagic acid nor geranin stimulated involucrin synthesis |  | 
2 | O=c1oc2c(O)c(O)cc3c(=O)oc4c(O)c(O)cc1c4c23 [Ellagic acid, ellagic acid] |  |  | Neither ellagic acid nor geranin stimulated involucrin synthesis | 68% | 32%
